The target of this experiment is T1, GST-tagged GDP-loaded KRAS G12V (amino acids 1-169) (Homo sapiens, UniProt P01116, G12V).
T1 construct: GST-tagged GDP-loaded KRAS G12V (amino acids 1-169); made in house; host or cells: E. coli
The experiment is described as follows: KRAS G12V probe displacement assay (TR-FRET). The settings on record: displacement of biotinylated probe 2 from GDP-loaded KRAS G12V. The class given is binding. The method, then:
KRAS WT and KRAS G12V Probe Displacement Assay
This assay was used to identify compounds which bind to GDP-loaded KRAS protein and are able to displace a biotinylated probe occupying the KRAS binding site. GST-tagged GDP-loaded WT KRAS (amino acids 1-169) and GST-tagged GDP-loaded KRAS G12V (amino acids 1-169) were expressed in E. coli and purified in house. All protein and reaction solutions were prepared in assay buffer containing 50 mM HEPES pH7.5, 50 mM NaCl, 1 mM MgCl2, 1 mM TCEP, 0.01% BSA, and 0.008% Brij-35. Purified WT KRAS (3 nM final concentration) or KRAS G12V protein (2 nM final concentration) was incubated with a 3-fold serially diluted compound in the assay plate (384 well microplate, black, Corning). Plates are incubated at 24° C. for 1 hr. Following the incubation, biotinylated probe 1 (60 nM final assay concentration) for WT KRAS and biotinylated probe 2 (2.5 nM final assay concentration) for KRAS G12V was added to the assay plate, respectively. After 1 hr incubation at 24° C., Mab Anti-GST-Tb cryptate (Cisbio) and Streptavidin-XL665 (Cisbio) were added and further incubated at 24° C. for another 1 hr. The TR-FRET signals (ex337 nm, em665 nm/620 nm) were read on BMG PHERAstar FSX instrument. The inhibition percentage of KRAS protein binding with biotinylated probe in presence of increasing concentrations of compounds was calculated based on the ratio of fluorescence at 665 nm to that at 620 nm. The IC50 value of each compound was calculated from fitting the data to the four-parameter logistic model by Dotmatics.

Results on 19 compounds are retold here after patent US20250101028A1, “HETEROCYCLIC COMPOUNDS, COMPOSITIONS THEREOF, AND METHODS OF TREATMENT THEREWITH” (BeiGene, Ltd., priority 2022, published 2025).

Structures are written as SMILES.

As usually defined, the IC50 is the concentration needed to halve the response being measured. Lower therefore signals greater potency in that assay.

T1 sequence (P01116 1-169 isoform P01116-2 G12V): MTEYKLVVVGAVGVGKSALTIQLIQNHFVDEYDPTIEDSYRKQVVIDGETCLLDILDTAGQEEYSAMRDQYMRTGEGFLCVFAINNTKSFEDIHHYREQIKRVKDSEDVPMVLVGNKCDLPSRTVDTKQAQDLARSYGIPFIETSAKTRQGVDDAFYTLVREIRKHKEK

On to `CC[C@@H]1CCCN1c1nc(OC[C@@]23CCCN2C[C@H](F)C3)nc2c(F)c(-c3ccc(F)c4sc(N)nc34)c(C(F)(F)F)cc12` [Example 58, 4-(4-((R)-2-ethylpyrrolidin-1-yl)-8-fluoro-2-(((2R,7aS)-2-fluorotetrahydro-1H-pyrrolizin-7a(5H)-yl)methoxy)-6-(trifluoromethyl)quinazolin-7-yl)-7-fluorobenzo[d]thiazol-2-amine], for which the half-inhibitory concentration (IC50) is 40 nM.

`N#CCN1CC2(CCN(c3nc(OC[C@@]45CCCN4C[C@H](F)C5)nc4c(F)c(-c5ccc(F)c6sc(N)nc56)c(C(F)(F)F)cc34)CC2)OC1=O` [Example 89, 2-(8-(7-(2-amino-7-fluorobenzo[d]thiazol-4-yl)-8-fluoro-2-(((2R,7aS)-2-fluorotetrahydro-1H-pyrrolizin-7a(5H)-yl)methoxy)-6-(trifluoromethyl)quinazolin-4-yl)-2-oxo-1-oxa-3,8-diazaspiro[4.5]decan-3-yl)acetonitrile] gave an IC50 of 2.4 nM.

`N#CC1CCCCN(c2nc(OC[C@@]34CCCN3C[C@H](F)C4)nc3c(F)c(-c4ccc(F)c5sc(N)nc45)c(C(F)(F)F)cc23)C1` (stereo partly drawn) [Example 83, 1-(7-(2-amino-7-fluorobenzo[d]thiazol-4-yl)-8-fluoro-2-(((2R,7aS)-2-fluorotetrahydro-1H-pyrrolizin-7a(5H)-yl)methoxy)-6-(trifluoromethyl)quinazolin-4-yl)azepane-3-carbonitrile] returned an IC50 of 6.4 nM.

`CC1(C)CCCN1c1nc(OC[C@@]23CCCN2C[C@H](F)C3)nc2c(F)c(-c3ccc(F)c4sc(N)nc34)c(C(F)(F)F)cc12` [Example 57, 4-(4-(2,2-dimethylpyrrolidin-1-yl)-8-fluoro-2-(((2R,7aS)-2-fluorotetrahydro-1H-pyrrolizin-7a(5H)-yl)methoxy)-6-(trifluoromethyl)quinazolin-7-yl)-7-fluorobenzo[d]thiazol-2-amine]: the half-inhibitory concentration (IC50) turned out to be 180 nM.

`C[C@@H]1COCCN1c1nc(OC[C@@]23CCCN2C[C@H](F)C3)nc2c(F)c(-c3cc(N)cc(Cl)c3C(F)(F)F)ncc12` [Example 115, 3-chloro-5-(8-fluoro-2-(((2R,7aS)-2-fluorotetrahydro-1H-pyrrolizin-7a(5H)-yl)methoxy)-4-((R)-3-methylmorpholino)pyrido[4,3-d]pyrimidin-7-yl)-4-(trifluoromethyl)aniline]: the IC50 was 6.5 nM.

`Nc1nc2c(-c3c(C(F)(F)F)cc4c(N5CCC6(CC5)CN(CC(F)F)C(=O)O6)nc(OC[C@@]56CCCN5C[C@H](F)C6)nc4c3F)ccc(F)c2s1` [Example 90, 8-(7-(2-amino-7-fluorobenzo[d]thiazol-4-yl)-8-fluoro-2-(((2R,7aS)-2-fluorotetrahydro-1H-pyrrolizin-7a(5H)-yl)methoxy)-6-(trifluoromethyl)quinazolin-4-yl)-3-(2,2-difluoroethyl)-1-oxa-3,8-diazaspiro[4.5]decan-2-one]: the IC50 came to 4.2 nM.

In the case of `Nc1nc2c(-c3c(C(F)(F)F)cc4c(NC5CC6(COC6)C5)nc(OC[C@@]56CCCN5C[C@H](F)C6)nc4c3F)ccc(F)c2s1` [Example 23, 4-(4-((2-oxaspiro[3.3]heptan-6-yl)amino)-8-fluoro-2-(((2R,7aS)-2-fluorotetrahydro-1H-pyrrolizin-7a(5H)-yl)methoxy)-6-(trifluoromethyl)quinazolin-7-yl)-7-fluorobenzo[d]thiazol-2-amine], the IC50 was found to be 23 nM.

Compound `CN1CC2(CCN(c3nc(OC[C@@]45CCCN4C[C@H](F)C5)nc4c(F)c(-c5ccc(F)c6sc(N)nc56)c(C(F)(F)F)cc34)CC2)CC1=O` [Example 97, 8-(7-(2-amino-7-fluorobenzo[d]thiazol-4-yl)-8-fluoro-2-(((2R,7aS)-2-fluorotetrahydro-1H-pyrrolizin-7a(5H)-yl)methoxy)-6-(trifluoromethyl)quinazolin-4-yl)-2-methyl-2,8-diazaspiro[4.5]decan-3-one] showed an IC50 of 3.8 nM.

`Nc1nc2c(-c3c(C(F)(F)F)cc4c(N[C@H]5C[C@H](F)C5)nc(OC[C@@]56CCCN5C[C@H](F)C6)nc4c3F)ccc(F)c2s1` [Example 16, 7-fluoro-4-(8-fluoro-4-(((trans)-3-fluorocyclobutyl)amino)-2-(((2R,7aS)-2-fluorotetrahydro-1H-pyrrolizin-7a(5H)-yl)methoxy)-6-(trifluoromethyl)quinazolin-7-yl)benzo[d]thiazol-2-amine] registered an IC50 of 14 nM.

Turning to `CC1CC(C#N)CCN1c1nc(OC[C@@]23CCCN2C[C@H](F)C3)nc2c(F)c(-c3cc(N)cc(Cl)c3C(F)(F)F)ncc12` (stereo partly drawn) [Example 124, 1-(7-(5-amino-3-chloro-2-(trifluoromethyl)phenyl)-8-fluoro-2-(((2R,7aS)-2-fluorotetrahydro-1H-pyrrolizin-7a(5H)-yl)methoxy)pyrido[4,3-d]pyrimidin-4-yl)-2-methylpiperidine-4-carbonitrile], the IC50 is 15 nM.

Turning to `Nc1nc2c(-c3c(C(F)(F)F)cc4c(N5CCCCCC5)nc(OC[C@@]56CCCN5C[C@H](F)C6)nc4c3F)ccc(F)c2s1` [Example 81, 4-(4-(azepan-1-yl)-8-fluoro-2-(((2R,7aS)-2-fluorotetrahydro-1H-pyrrolizin-7a(5H)-yl)methoxy)-6-(trifluoromethyl)quinazolin-7-yl)-7-fluorobenzo[d]thiazol-2-amine], the IC50 amounted to 4.9 nM.

`Nc1nc2c(-c3c(C(F)(F)F)cc4c(N[C@H]5C[C@H]5F)nc(OC[C@@]56CCCN5C[C@H](F)C6)nc4c3F)ccc(F)c2s1` [Example 2, 7-fluoro-4-(8-fluoro-4-(((1S,2R)-2-fluorocyclopropyl)amino)-2-(((2R,7aS)-2-fluorotetrahydro-1H-pyrrolizin-7a(5H)-yl)methoxy)-6-(trifluoromethyl)quinazolin-7-yl)benzo[d]thiazol-2-amine] came in with an IC50 of 16 nM.

`Nc1nc2c(-c3c(C(F)(F)F)cc4c(NC5CCC(F)C5)nc(OC[C@@]56CCCN5C[C@H](F)C6)nc4c3F)ccc(F)c2s1` (stereo in doubt) [Example 25, 7-fluoro-4-(8-fluoro-4-(((1S,3R)-3-fluorocyclopentyl)amino)-2-(((2R,7aS)-2-fluorotetrahydro-1H-pyrrolizin-7a(5H)-yl)methoxy)-6-(trifluoromethyl)quinazolin-7-yl) benzo[d]thiazol-2-amine] yielded a half-maximal inhibitory concentration (IC50) of 38 nM.

Compound `C[C@@]1(O)CCCN(c2nc(OC[C@@]34CCCN3C[C@H](F)C4)nc3c(F)c(-c4ccc(F)c5sc(N)nc45)c(C(F)(F)F)cc23)C1` [Example 80, (3R)-1-(7-(2-amino-7-fluorobenzo[d]thiazol-4-yl)-8-fluoro-2-(((2R,7aS)-2-fluorotetrahydro-1H-pyrrolizin-7a(5H)-yl)methoxy)-6-(trifluoromethyl)quinazolin-4-yl)-3-methylpiperidin-3-ol] showed an IC50 of 17 nM.

Compound `Nc1cc(Cl)c(C(F)(F)F)c(-c2ncc3c(N4CCC5CC5(O)C4)nc(OC[C@@]45CCCN4C[C@H](F)C5)nc3c2F)c1` (stereo partly drawn) [Example 131, 3-(7-(5-amino-3-chloro-2-(trifluoromethyl)phenyl)-8-fluoro-2-(((2R,7aS)-2-fluorotetrahydro-1H-pyrrolizin-7a(5H)-yl)methoxy)pyrido[4,3-d]pyrimidin-4-yl)-3-azabicyclo[4.1.0]heptan-1-ol] displayed an IC50 of 23 nM.

As to `CCC1CC1Nc1nc(OC[C@@]23CCCN2C[C@H](F)C3)nc2c(F)c(-c3ccc(F)c4sc(N)nc34)c(C(F)(F)F)cc12` (stereo partly shown) [Example 4], the IC50 was 29 nM.

Regarding `C[C@@H]1CCCN1c1nc(OC[C@@]23CCCN2C[C@H](F)C3)nc2c(F)c(-c3ccc(F)c4sc(N)nc34)c(C(F)(F)F)cc12` [Example 55, 7-fluoro-4-(8-fluoro-2-(((2R,7aS)-2-fluorotetrahydro-1H-pyrrolizin-7a(5H)-yl)methoxy)-4-((R)-2-methylpyrrolidin-1-yl)-6-(trifluoromethyl)quinazolin-7-yl)benzo[d]thiazol-2-amine], the IC50 turned out to be 168 nM.

`CO[C@H]1C[C@@H](Nc2nc(OC[C@@]34CCCN3C[C@H](F)C4)nc3c(F)c(-c4ccc(F)c5sc(N)nc45)c(C(F)(F)F)cc23)C1` [Example 13, 7-fluoro-4-(8-fluoro-2-(((2R,7aS)-2-fluorotetrahydro-1H-pyrrolizin-7a(5H)-yl)methoxy)-4-(((cis)-3-methoxycyclobutyl)amino)-6-(trifluoromethyl)quinazolin-7-yl)benzo[d]thiazol-2-amine] came in with an IC50 of 20 nM.

Consider `Cc1cc(N)nc(-c2c(Cl)cc3c(N4CC[C@@H](C#N)C[C@@H]4C)nc(OC[C@@]45CCCN4C[C@H](F)C5)nc3c2F)c1C(F)(F)F` (mixture of isomers) [Example 104, 1-(7-(6-amino-4-methyl-3-(trifluoromethyl)pyridin-2-yl)-6-chloro-8-fluoro-2-(((2R,7aS)-2-fluorotetrahydro-1H-pyrrolizin-7a(5H)-yl)methoxy)quinazolin-4-yl)-trans-2-methylpiperidine-4-carbonitrile], for which the IC50 was determined as 7 nM.
